Among the data in patent US10894784B2, “Heteroarylbenzimidazole compounds” (BAYER PHARMA AKTIENGESELLSCHAFT, priority 2015, dated 2021) are IC50 values, retold here.

The test deals with TBK1 (Homo sapiens (Human), UniProt Q9UHD2). The experiment in a line: TBK1 low ATP kinase assay (in vitro assay 1). It counts as biochemical. The note with it: in vitro assay 1, read-out: TBK1 low ATP kinase assay IC50.
Chain of TBK1 (Q9UHD2 whole entry): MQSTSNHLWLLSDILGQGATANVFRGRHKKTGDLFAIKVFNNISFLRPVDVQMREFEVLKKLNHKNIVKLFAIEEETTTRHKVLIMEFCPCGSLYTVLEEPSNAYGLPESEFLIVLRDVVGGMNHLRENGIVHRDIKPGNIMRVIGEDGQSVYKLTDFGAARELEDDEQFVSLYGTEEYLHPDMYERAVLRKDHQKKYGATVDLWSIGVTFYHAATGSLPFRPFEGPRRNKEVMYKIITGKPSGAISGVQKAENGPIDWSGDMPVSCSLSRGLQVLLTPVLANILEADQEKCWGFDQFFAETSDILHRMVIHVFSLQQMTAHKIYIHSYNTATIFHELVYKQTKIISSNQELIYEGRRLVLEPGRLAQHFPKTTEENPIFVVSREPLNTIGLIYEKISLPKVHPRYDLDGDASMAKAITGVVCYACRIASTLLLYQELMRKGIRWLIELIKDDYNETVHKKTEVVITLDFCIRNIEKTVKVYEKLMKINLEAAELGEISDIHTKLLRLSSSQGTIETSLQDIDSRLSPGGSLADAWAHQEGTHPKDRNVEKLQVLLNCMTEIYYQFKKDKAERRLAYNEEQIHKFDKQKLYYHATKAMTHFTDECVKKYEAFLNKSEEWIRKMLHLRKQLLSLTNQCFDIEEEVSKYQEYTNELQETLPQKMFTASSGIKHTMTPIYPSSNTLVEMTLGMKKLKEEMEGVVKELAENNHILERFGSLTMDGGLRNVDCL
In general, IC50 refers to the concentration needed to halve the response being measured. For `COc1c(NC2CC2)ncnc1-c1ccc2nc(Nc3cc(CN4CCN(C(=O)CC(F)(F)F)CC4)ccn3)[nH]c2c1` [Example 108.02, 1-(4-{[2-({6-[6-(cyclopropylamino)-5-methoxypyrimidin-4-yl]-1H-benzimidazol-2-yl}amino)pyridin-4-yl]methyl}piperazin-1-yl)-3,3,3-trifluoropropan-1-one], the half-maximal inhibitory concentration (IC50) was 8.2 nM. In the case of `CCN(CC)c1cc(-c2ccc3nc(Nc4cc(CN5CCN(C(=O)C6CC6)CC5)ccn4)[nH]c3c2)ncn1` [Example 155.03, cyclopropyl(4-{[2-({6-[6-(diethylamino)pyrimidin-4-yl]-1H-benzimidazol-2-yl}amino)pyridin-4-yl]methyl}piperazin-1-yl)methanone], the IC50 is 17 nM.

In the case of `O=C(C1CC1)N1CCN(Cc2ccnc(Nc3nc4ccc(-c5ncnc6ccoc56)cc4[nH]3)c2)CC1` [Example 168.03, cyclopropyl{4-[(2-{[6-(furo[3,2-d]pyrimidin-4-yl)-1H-benzimidazol-2-yl]amino}pyridin-4-yl)methyl]piperazin-1-yl}methanone], the IC50 came to 7.12 nM. Consider `O=C(CC(F)(F)F)N1CCN(Cc2ccnc(Nc3nc4ccc(-c5cc(N6CCC6)ncn5)cc4[nH]3)c2)CC1` [Example 147.02, 1-(4-{[2-({6-[6-(azetidin-1-yl)pyrimidin-4-yl]-1H-benzimidazol-2-yl}amino)pyridin-4-yl]methyl}piperazin-1-yl)-3,3,3-trifluoropropan-1-one], for which the IC50 amounted to 1.8 nM.

In the case of `Cc1ncc(C)c(-c2ccc3nc(Nc4cc(CN5CCN(C(=O)OC(C)(C)C)CC5)ccn4)[nH]c3c2)n1` [Example 33.01, tert-butyl 4-[(2-{[6-(2,5-dimethylpyrimidin-4-yl)-1H-benzimidazol-2-yl]amino}pyridin-4-yl)methyl]piperazine-1-carboxylate], the IC50 turned out to be 3540 nM.

Turning to `CC(c1ccnc(Nc2nc3ccc(-c4cc(N5CC(F)(F)C5)ncn4)cc3[nH]2)c1)N1CCN(C(=O)C2(C(F)(F)F)CC2)CC1` (single isomer, unassigned) [Example 116.04, (4-{(1R or 1S)-1-[2-({6-[6-(3,3-difluoroazetidin-1-yl)pyrimidin-4-yl]-1H-benzimidazol-2-yl}amino)pyridin-4-yl]ethyl}piperazin-1-yl)[1-(trifluoromethyl)cyclopropyl]methanone], the IC50 stood at 1 nM. Then “1-(4-{(1R or 1S)-1-[2-({6-[1-(cyclopentylmethyl)-1H-pyrazol-4-yl]-1H-benzimidazol-2-yl}amino)pyridin-4-yl]ethyl}piperazin-1-yl)-3,3,3-trifluoropropan-1-one [Example 71.02]”, with 7.1 nM; and `Cc1noc(-c2ccc3nc(Nc4cc(CN5CCN(c6c(Cl)cncc6Cl)CC5)ccn4)[nH]c3c2)n1` [Example 101.23, N-(4-{[4-(3,5-dichloropyridin-4-yl)piperazin-1-yl]methyl}pyridin-2-yl)-6-(3-methyl-1,2,4-oxadiazol-5-yl)-1H-benzimidazol-2-amine], with 280 nM. Then `COc1cc(-c2ccc3nc(Nc4cc(CN5CCN(C(=O)C6CC6)CC5)ccn4)[nH]c3c2)c(F)cn1` [Example 03.01, cyclopropyl{4-[(2-{[6-(5-fluoro-2-methoxypyridin-4-yl)-1H-benzimidazol-2-yl]amino}pyridin-4-yl)methyl]piperazin-1-yl}methanone], with 198 nM.

Take `CC(c1ccnc(Nc2nc3ccc(-c4cnn(CC5CCC5)c4)c(F)c3[nH]2)c1)N1CCN(C(=O)C2CC2)CC1` (single isomer, unassigned) [Example 171.03, (4-{(1R or 1S)-1-[2-({6-[1-(cyclobutylmethyl)-1H-pyrazol-4-yl]-7-fluoro-1H-benzimidazol-2-yl}amino)pyridin-4-yl]ethyl}piperazin-1-yl)(cyclopropyl)methanone]: the IC50 is 2.85 nM. Turning to `Cc1cc(-c2ccc3nc(Nc4cc(CN5CCN(C(=O)C6CC6)CC5)ccn4)[nH]c3c2)c(F)cn1` [Example 131.03, cyclopropyl{4-[(2-{[6-(5-fluoro-2-methylpyridin-4-yl)-1H-benzimidazol-2-yl]amino}pyridin-4-yl)methyl]piperazin-1-yl}methanone], the IC50 was determined as 32 nM. For `N#Cc1cnccc1-c1ccc2nc(Nc3cc(CN4CCN(C(=O)CC(F)(F)F)CC4)ccn3)[nH]c2c1` [Example 133.02, 4-{2-[(4-{[4-(3,3,3-trifluoropropanoyl)piperazin-1-yl]methyl}pyridin-2-yl)amino]-1H-benzimidazol-6-yl}pyridine-3-carbonitrile], the IC50 amounted to 140 nM. For the compound `CC(C)Cc1nc(-c2ccc3nc(Nc4cc(CN5CCN(C(=O)CC(F)(F)F)CC5)ccn4)[nH]c3c2)n(C)n1` [Example 42.02, 3,3,3-trifluoro-1-(4-{[2-({6-[1-methyl-3-(2-methylpropyl)-1H-1,2,4-triazol-5-yl]-1H-benzimidazol-2-yl}amino)pyridin-4-yl]methyl}piperazin-1-yl)propan-1-one], the concentration for half-maximal inhibition (IC50) was 397 nM.

For the compound `CC(c1ccnc(Nc2nc3ccc(-c4cnn(CC5CCC5)c4)c(F)c3[nH]2)c1)N1CCN(C(=O)CC(F)(F)F)CC1` (single isomer, unassigned) [Example 171.02, 1-(4-{(1R or 1S)-1-[2-({6-[1-(cyclobutylmethyl)-1H-pyrazol-4-yl]-7-fluoro-1H-benzimidazol-2-yl}amino)pyridin-4-yl]ethyl}piperazin-1-yl)-3,3,3-trifluoropropan-1-one], the IC50 was 5.95 nM. With `COc1nc(-c2ccc3nc(Nc4cc(CN5CCN(C(=O)CC(F)(F)F)CC5)ccn4)[nH]c3c2)cc(N(C)C)n1` [Example 189.02, 1-(4-{[2-({6-[6-(dimethylamino)-2-methoxypyrimidin-4-yl]-1H-benzimidazol-2-yl}amino)pyridin-4-yl]methyl}piperazin-1-yl)-3,3,3-trifluoropropan-1-one], the IC50 is 28.6 nM.

On to `CCOc1ncnc(-c2ccc3nc(Nc4cc(CN5CCN(C(=O)CC(F)(F)F)CC5)ccn4)[nH]c3c2)c1OC` [Example 167.02, 1-{4-[(2-{[6-(6-ethoxy-5-methoxypyrimidin-4-yl)-1H-benzimidazol-2-yl]amino}pyridin-4-yl)methyl]piperazin-1-yl}-3,3,3-trifluoropropan-1-one], for which the IC50 is 35 nM. Then `CC(C)(C)OC(=O)N1CCN(Cc2ccnc(Nc3nc4ccc(-c5cnc(Br)cn5)cc4[nH]3)c2)CC1` [Example 140.01, tert-butyl 4-[(2-{[6-(5-bromopyrazin-2-yl)-1H-benzimidazol-2-yl]amino}pyridin-4-yl)methyl]piperazine-1-carboxylate], with 13 nM. Turning to `O=C(CC(F)(F)F)N1CCN(Cc2ccnc(Nc3nc4ccc(-c5cc(N6CCCCC6)ncn5)cc4[nH]3)c2)CC1` [Example 145.02, 3,3,3-trifluoro-1-(4-{[2-({6-[6-(piperidin-1-yl)pyrimidin-4-yl]-1H-benzimidazol-2-yl}amino)pyridin-4-yl]methyl}piperazin-1-yl)propan-1-one], the IC50 is 2.9 nM. In the case of `O=C(CC(F)(F)F)N1CCN(Cc2ccnc(Nc3nc4ccc(-c5ccnc(OCC6CC6)n5)cc4[nH]3)c2)CC1` [Example 62.01.03, 1-(4-{[2-({6-[2-(cyclopropylmethoxy)pyrimidin-4-yl]-1H-benzimidazol-2-yl}amino)pyridin-4-yl]methyl}piperazin-1-yl)-3,3,3-trifluoropropan-1-one], the IC50 amounted to 3.38 nM. With `O=C(CC(F)(F)F)N1CCN(Cc2ccnc(Nc3nc4ccc(-c5nnc(CC6CCC6)o5)cc4[nH]3)c2)CC1` [Example 126.02, 1-(4-{[2-({6-[5-(cyclobutylmethyl)-1,3,4-oxadiazol-2-yl]-1H-benzimidazol-2-yl}amino)pyridin-4-yl]methyl}piperazin-1-yl)-3,3,3-trifluoropropan-1-one], the IC50 amounted to 3.9 nM. Then `O=C(CC(F)(F)F)N1CCN(Cc2ccnc(Nc3nc4ccc(-c5ncnc(NC6CCC6)c5F)cc4[nH]3)c2)CC1` [Example 194.02, 1-(4-{[2-({6-[6-(cyclobutylamino)-5-fluoropyrimidin-4-yl]-1H-benzimidazol-2-yl}amino)pyridin-4-yl]methyl}piperazin-1-yl)-3,3,3-trifluoropropan-1-one], with 45.9 nM; and `Cc1cc(-c2ccc3nc(Nc4cc(C(C)N5CCN(C(=O)CC(F)(F)F)CC5)ccn4)[nH]c3c2Cl)ncn1` (single isomer, unassigned) [Example 98.02, 1-{4-[(1R or 1S)-1-(2-{[7-chloro-6-(6-methylpyrimidin-4-yl)-1H-benzimidazol-2-yl]amino}pyridin-4-yl)ethyl]piperazin-1-yl}-3,3,3-trifluoropropan-1-one], with 44 nM; and `CC(c1ccnc(Nc2nc3ccc(-c4cc(OCC(F)(F)F)ncn4)cc3[nH]2)c1)N1CCN(C(=O)C2CC2(F)F)CC1` (single isomer, unassigned) [Example 119.05, ((1RS)-2,2-difluorocyclopropyl)(4-{(1R or 1S)-1-[2-({6-[6-(2,2,2-trifluoroethoxy)pyrimidin-4-yl]-1H-benzimidazol-2-yl}amino)pyridin-4-yl]ethyl}piperazin-1-yl)methanone], with 6.35 nM. With `Cc1cc(-c2ccc3nc(Nc4cc(C(C)N5CCN(C(=O)CC(F)(F)F)CC5)ccn4)[nH]c3c2)n(C)n1` (single isomer, unassigned) [Example 89.02, 1-{4-[(1R or 1S)-1-(2-{[6-(1,3-dimethyl-1H-pyrazol-5-yl)-1H-benzimidazol-2-yl]amino}pyridin-4-yl)ethyl]piperazin-1-yl}-3,3,3-trifluoropropan-1-one], the IC50 was 450 nM.

On to `O=C(C1CC1)N1CCN(Cc2ccnc(Nc3nc4ccc(-c5ccnc(C(F)(F)F)n5)cc4[nH]3)c2)CC1` [Example 27.01, cyclopropyl(4-{[2-({6-[2-(trifluoromethyl)pyrimidin-4-yl]-1H-benzimidazol-2-yl}amino)pyridin-4-yl]methyl}piperazin-1-yl)methanone], for which the IC50 is 164 nM.

`O=C(C1CC1)N1CCN(Cc2ccnc(Nc3nc4ccc(-c5cnn(CC6CC6)c5)cc4[nH]3)c2)CC1` [Example 39.01.03, cyclopropyl(4-{[2-({6-[1-(cyclopropylmethyl)-1H-pyrazol-4-yl]-1H-benzimidazol-2-yl}amino)pyridin-4-yl]methyl}piperazin-1-yl)methanone]: the half-inhibitory concentration (IC50) came to 5.35 nM.
